Test results taken from patent publication US20090062375A1, “METHODS AND COMPOSITIONS FOR THE TREATMENT OF VIRAL DISEASES” (priority 2005, published 2009).

Key:
[1] = system: MMP-9 secretion by DV-infected iDC; assay: Gelatin zymography of gelatinase (MMP-9) secretion by DV-infected iDC; assay type: cell-based, human; conditions: 10 μM SB203580 pretreatment, DV exposure 16 hr, zymography (FIG. 5C)
Protocol: FIG. 5. Immature DC (A-C) or HUVEC (D-F) were infected or not with DV and cells were collected 30 min post infection. Cells lysate were separated on 12.5% SDS-PAGE under reducing conditions. Proteins were electrophoretically transferred onto nitrocellulose membrane. The membrane was probed with (A and E) antibodies to total and to specific phosphorylated forms of ERK1/ERK2 antibodies to total and (B, D) to specific phosphorylated forms of p38 kinase. Horseradish peroxidase-conjugated goat anti-rabbit IgG was used as secondary antibody. Immature DC (C) or HUVEC (F) were pretreated or not with 10 μM SB 203580 prior to exposure with DV for 16 hr at 37° C. Supernatants were collected, lyophilized and assayed by zymography. Data are representative of 3 independent experiments.
Immature dendritic cells 5×10^5 cells/well were exposed to DV2-16681 for 2 hr, at MOI of 1 pfu/cell, in serum free RPMI 1640. Five extensive washes were done to eliminate free virus. […] Supernatants of DV infected iDC were collected and assessed for their viral activity. […]
DV infected iDC (5×10^5 cells) were cultured and collected in several time periods. Gelatinase secretion of cell supernatants was determined by sodium dodecyl sulfate-polyacrylamide gel electrophoresis (SDS-PAGE) zymography by using a gelatin substrate, as previously described (Missé´et al., 2001). […]

HUVEC monolayers = assay: HUVEC monolayer permeability assay (FITC-dextran, Transwell); assay type: cell-based, human; conditions: concentration not stated
Protocol: FIG. 6. Supernatant of DEN-V2 infected-iDC increase endothelial cell permeability in a MMP dependent fashion. Eighty percent confluent HUVEC were prepared on 24-well transwell polyethylene. (A) Either cell culture supernatants of uninfected iDC, DV-infected iDC, or recombinant TNF-α (20 ng/ml) were pre-treated or not with 20 nM SB-3CT for 24 hours before HUVEC exposure for 12 hours, HUVEC monolayer permeability was measured by using the FITC-Dextran detected with spectrofluorometer at an excitation wavelength of 485 nm and emission at 530 nm. […] Data are representative of 3 or 4 independent experiments.
FIG. 7. Supernatant of DEN-V2 infected-HUVEC increase endothelial cell permeability in a MMP-dependent fashion. IL-8 or TNF-α were used as controls. The induced permeability was inhibited as in experiment of FIG. 6 by SB-3CT.
Immature dendritic cells were cultured for 24 hr in serum-free RPMI 1640 conditioned medium. And then infected with DV, cells and supernatant were collected at different periods. […]
Permeability of HUVEC monolayers cultured on Transwell filters was assessed using FITC-labelled dextrans. […] The cells were removed and the absorbance of the FITC-dextran in the chamber was measured by spectrofluorometer (GENios-TECAN, Trappes, France) at an excitation wavelength of 485 nm and emission of 530 nm.

## C[S+]([O-])c1ccc(-c2nc(-c3ccc(F)cc3)c(-c3ccncc3)[nH]2)cc1 (centres unmarked) [SB203580, 4-(4-Fluorophenyl)-2-(4-methylsulfinylphenyl)-5-(4-pyridyl)1H-imidazole]
[1]
  increase in MMP-9 secretion by DV-infected iDC: totally abolished
HUVEC monolayers
  permeability of HUVEC increased by dengue virus-infected iDC supernatants (summary statement): inhibited
